Laboratory results reported in PMC7689096, “Cyclizing Painkillers: Development of Backbone-Cyclic TAPS Analogs” (Frontiers in Chemistry, 2020).

Legend:
[1] = molecular target: T1, δ (DOP, OPRD2) opioid receptor (Mus musculus, UniProt P32300); assay: DOP opioid receptor functional agonism in NG-10815 cells; assay type: cell-based, rat; conditions: At 10^−6 M, percent of control specific agonist response
T1 construct: NG-10815 cells which express significant endogenous levels of δ opioid receptors; host or cells: NG-10815 (NG108-15) mouse N18TG2 neuroblastoma x rat C6-BU-1 glioma hybrid cells
T1 sequence (P32300 whole entry): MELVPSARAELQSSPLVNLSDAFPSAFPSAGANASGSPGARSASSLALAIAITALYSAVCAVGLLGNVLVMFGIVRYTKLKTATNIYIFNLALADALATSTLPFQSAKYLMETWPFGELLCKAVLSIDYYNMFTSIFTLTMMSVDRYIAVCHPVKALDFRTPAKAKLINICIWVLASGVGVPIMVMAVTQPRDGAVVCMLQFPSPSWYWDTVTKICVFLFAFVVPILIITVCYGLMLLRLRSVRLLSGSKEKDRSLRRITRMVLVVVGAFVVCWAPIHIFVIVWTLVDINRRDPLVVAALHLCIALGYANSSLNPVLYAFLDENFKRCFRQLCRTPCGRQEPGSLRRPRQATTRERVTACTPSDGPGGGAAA
Method: Peptides were tested for μ (MOP, OPRM1) and δ (DOP, OPRD2) opioid receptor activation functional agonism and antagonism using CHO cells expressing human recombinant μ receptors and NG-10815 cells which express significant endogenous levels of δ opioid receptors. The cultures were incubated for 10 min at 37°C followed by impedance measurements of CHO cells and cAMP was assayed by the HTRF method using NG-10815 cells, according to CEREP standard assay protocols. The respective reference, non-peptide small molecules were tested concurrently with the TAPS analogs. The agonist compounds were: DPDPE (selective agonist of DOP receptor) and DAMGO (high MOP receptor specificity) and the antagonist compounds were: Naltrindole (selective DOP receptor antagonist) and CTOP (MOP receptor antagonist). […] The results are expressed as a percentage of respective control-specific response. […] These findings indicate that TAPS cyclic peptides are MOP selective full agonists. […] The cyclic TAPS peptide had lower activity than the linear parent TAPS peptide (90 ± 5%) – a finding that can be attributed to their restricted conformation relative to the flexible linear peptide conformation.
Evaluation of the Agonist Activity of Compounds at the Rat delta2 Receptor Endogenously Expressed in NG-10815 Cells, Determined by Measuring Their Effects on Impedance Modulation Using the CellKey (CDS) Detection Method
Cells are seeded onto 96-well plate coated with fibronectin at 2 × 10^5 cells/well in HBSS buffer (Invitrogen) + 20 mM HEPES (Invitrogen) with 0.1% BSA and allowed to equilibrate for 60 min at 37°C before the start of the experiment. Plates are placed onto the system and measurements are made at a temperature of 37°C. […] Impedance measurements are monitored for 10 min after ligand addition. The standard reference agonist is DPDPE, which is tested in each experiment at several concentrations to generate a concentration-response curve from which its EC50 value is calculated.
The respective reference, non-peptide small molecules were tested concurrently with the TAPS analogs; Agonist compounds DPDPE ([D-Pen2,D-Pen5]enkephalin), selective agonist of DOP receptor at 2 × 10^−9 M and DAMGO ([D-Ala2, N-MePhe4, Gly-ol] enkephalin), high MOP specificity at 2.5 × 10^−9 M; Antagonist compounds: naltrindole 7-(cyclopropylmethyl)-6,7-dehydro-4,5α-epoxy-3,14-dihydroxy-6,7-2′,3′-indolomorphinan hydrochloride, selective DOP antagonist, 5 × 10^−10 M and CTOP (D-Phe-Cys-Tyr-D-Trp-Orn-Thr-Pen-Thr-NH2), MOP antagonist at 3.4 × 10^−7 M. Depending on the assay volume and solvent tolerance, the stock solutions were diluted to [100×], [333×] or [1,000×] in 100% DMEM solvent, then either added directly or further diluted to [10×] or [5×] in H2O or Hank's balanced salt solution (HBSS) before addition to the assay well (final solvent concentration kept constant). The cultures were incubated for 10 min at 37°C followed by impedance measurements using cellular dielectric spectroscopy of CHO cells and cAMP was assayed by homogeneous time resolved fluorescence (HTRF) method using NG-10815 cells, according to CEREP standard assay protocols (https://euroscreenfast.com/assays/opioid-orl1-camp-fast-0360c; https://euroscreenfast.com/assays/opioid-op1-delta-camp-fast-0379c). […]

mice [2] = assay: Mouse open field test (locomotor adverse effect)
Method: In the mouse open field test (OF test), the distance and speed the animal moves over a 5-min time period is recorded, giving an indication as to whether a medication administered affected its locomotor activity. TAPS c(2-6) (5 or 15 mg/kg) was administered via IP administration and compared to morphine (5 mg/kg) and vehicle (PBS).
Male ICR mice (Harlan, Israel) 7 weeks of age (25–27) were used for all pharmacodynamic experiments after 5-day acclimation to laboratory conditions. Animals were allowed free access to food (standard commercial, sterile rodent diet) and water throughout the experiments and kept in automatically controlled environmental conditions for temperature and humidity levels in a 12-h dark-light cycle.
Animals were placed in the OF apparatus for a period of 5 min. The apparatus utilizes computerized monitoring which measures the speed and distance the animal walks during the measurement period. […] Baseline measurements were taken 1 day before initiation of the experiments and again at 0.5, 1.5, 3, and 5 h post injection.

mice [3] = assay: Mouse tail flick test (analgesia); assay type: in vivo
Method: Following the preliminary results showing the in vitro agonist effect of TAPS c(2-6) in activating the μ-opioid receptor, the activity of TAPS c(2-6) in inducing analgesia in vivo was studied utilizing the mouse tail flick model. In this model, the mouse is exposed to local pain induced by an infrared light beam at the tail of the animal, and the time it takes for the animal to react to the pain, i.e., flick its tail, termed the “Latency time to tail flick,” is recorded. The treatment groups received either 5 or 15 mg/kg of TAPS c(2-6) dissolved in PBS. These were compared to animals receiving morphine (5 mg/kg) as a positive control or vehicle (PBS) as a negative control (Figure 9).
For the assessment of analgesia induced by TAPS c(2-6), the mouse tail-flick model was used. […] Animals were placed upon the TF instrument surface (Ugo Basile S.R.L) and held in place. The tail was placed straight back over an infrared light source. The heat source and timer were turned on and automatically switched off when the mouse flicked its tail away from the heat source. The time it took for the animal to flick its tail was measured and results were recorded as latency time to TF. […] Prior to TF measurement, assessment of possible locomotor side-effects via the Open-Field model was performed, as will be described in the next section TAPS c(2-6) Adverse Effect Assessment- the Open-Field Test.

In the case of `N=C(N)NCCC[C@@H]1C(=O)N[C@@H](Cc2ccccc2)C(=O)N(CC(N)=O)CCNC(=O)NCCCCCCN1C(=O)[C@@H](N)Cc1ccc(O)cc1` [TAPS c(2-6)], the “DOP agonist (%)” value [1] is reported as 11%, the “locomotor effect (distance and speed of movement over 5 min)” value (mice [2]; 5 mg/kg IP) is reported as “no locomotor effect” and the “locomotor effect (distance and speed of movement over 5 min)” value (mice [2]; 15 mg/kg IP) is reported as “no locomotor effect”. The “analgesia (latency time to tail flick)” value (mice [3]; 5 mg/kg IP, compared to PBS) was “induced analgesia”, the “analgesia (latency time to tail flick)” value (mice [3]; 15 mg/kg IP, compared to morphine 5 mg/kg) was “comparative in strength and duration to that induced by morphine” and the duration of analgesia (mice [3]; higher dosage 15 mg/kg IP) was “at least 5 h”.
